Experimental data reported in patent publication US6737438B2, “Substituted 1,2,4-trioxanes useful as antimalarial agents and a process for the preparation thereof” (Council of Scientific and Industrial Research, priority 2002, dated 2004).
Like-named read-outs stand apart in the source and are kept apart here.

Tested on: multidrug resistant strain of Plasmodium yoelii Nigeriensis
Assay: Antimalarial activity against multidrug resistant P. yoelii in swiss mice
Type: in vivo
Conditions: for % Suppression on Day 4 / inhibition in vivo at 96 mg/kg: 4 consecutive days (day 0-3), parasitaemia vs vehicle control; for Cured/treated: observed till day 28; for inhibition in vivo at 96 mg/kg / responders at 96 mg/kg: Plasmodium yoelii; for inhibition in vivo at 96 mg/kg: 96 h, read-out: % Suppression on Day 4; for responders at 96 mg/kg: 672 h, observed till day 28, read-out: Cured/treated (converted)

## C=C(c1ccc(C2CCCCCC2)cc1)C1COC2(CCC(C(C)(C)CC)CC2)OO1 (centres unmarked) [Trioxane 7cb]
i.m., 96 mg/kg
  % Suppression on Day 4: 86.31%
  Cured/treated: 0/5
oral, 96 mg/kg
  % Suppression on Day 4: 100%
  Cured/treated: 5/5

## C=C(c1ccc(C2CCCCCCC2)cc1)C1COC2(CCC(c3ccccc3)CC2)OO1 (centres unmarked) [Trioxane 7dd]
i.m., 96 mg/kg
  % Suppression on Day 4: 73.81%
  Cured/treated: 0/5
oral, 96 mg/kg
  % Suppression on Day 4: 100%
  Cured/treated: 4/5

## C(=CC1COC2(CCCCC2)OO1)c1ccc(C2CCCCCCC2)cc1 (centres unmarked) [Trioxane 7db, 3-[(4′-cyclooctylphenyl)vinyl]-1,2,5-trioxaspiro-(5,5)-undecane]
i.m., 96 mg/kg
  % Suppression on Day 4: 9.5%
  Cured/treated: 0/5
oral, 96 mg/kg
  % Suppression on Day 4: 100%
  Cured/treated: 5/5

## CCC1(C)OCC(C=Cc2ccc(-c3ccc(Br)cc3)cc2)OO1 (centres unmarked) [Trioxane 7fb, 3-Ethyl-3-methly-6-[(4′-bromo-[1,1′-biphenyl]-4-yl)-vinyl]-1,2,4-trioxane]
i.m., 96 mg/kg
  % Suppression on Day 4: 51.41%
  Cured/treated: 0/5
oral, 96 mg/kg
  % Suppression on Day 4: 100%
  Cured/treated: 0/5

## C=C(c1ccc(-c2ccccc2)cc1)C1COC2(OO1)C1CC3CC(C1)CC2C3 (centres unmarked) [Trioxane 9e]
i.m., 96 mg/kg
  % Suppression on Day 4: 100%
  Cured/treated: 0/6
oral, 96 mg/kg
  % Suppression on Day 4: 100%
  Cured/treated: 6/6

## C(=CC1COC(c2ccccc2)OO1)c1ccc(C2CCCCC2)cc1 (centres unmarked) [Trioxane 7bc, 6-[(4′-cyclohexylphenyl)vinyl]-3-phenyl-1,2,4-trioxane]
i.m., 96 mg/kg
  % Suppression on Day 4: 41.98%
  Cured/treated: 0/5
oral, 96 mg/kg
  % Suppression on Day 4: 95.64%
  Cured/treated: 0/5

## C=C(c1ccc(C2CCCC2)cc1)C1COC2(CCC(C(C)(C)CC)CC2)OO1 (centres unmarked) [Trioxane 7ae]
i.m., 96 mg/kg
  % Suppression on Day 4: 43.58%
  Cured/treated: 0/5
oral, 96 mg/kg
  % Suppression on Day 4: 100%
  Cured/treated: 0/5

## C=C(c1ccc(C2CCCCC2)cc1)C1COC2(CC3CCC2C3)OO1 (centres unmarked) [Trioxane 8b]
i.m., 96 mg/kg
  % Suppression on Day 4: 100%
  Cured/treated: 3/5
oral, 48 mg/kg
  % Suppression on Day 4: 100%
  Cured/treated: 6/6

## C=C(c1ccc(C2CCCC2)cc1)C1COC2(CC3CCC2C3)OO1 (centres unmarked) [Trioxane 8a]
i.m., 96 mg/kg
  % Suppression on Day 4: 81.23%
  Cured/treated: 0/5
oral, 96 mg/kg
  % Suppression on Day 4: 100%
  Cured/treated: 5/5

## C(=CC1COC2(CCCCC2)OO1)c1ccc(C2CCCCCC2)cc1 (centres unmarked) [Trioxane 7ca, 3-[(4′-cycloheptylphenyl)vinyl]-1,2,5-trioxaspiro-[5,5]-undecane]
i.m., 96 mg/kg
  % Suppression on Day 4: 62.18%
  Cured/treated: 0/5
oral, 96 mg/kg
  % Suppression on Day 4: 100%
  Cured/treated: 1/5

## C=C(c1ccc(-c2ccc(Br)cc2)cc1)C1COC2(CCC(c3ccccc3)CC2)OO1 (centres unmarked) [Trioxane 7ff]
i.m., 96 mg/kg
  % Suppression on Day 4: 46.1%
  Cured/treated: 0/5
oral, 96 mg/kg
  % Suppression on Day 4: 100%
  Cured/treated: 2/5

## CCC1(C)OCC(C=Cc2ccc(C3CCCCC3)cc2)OO1 (centres unmarked) [Trioxane 7bf]
i.m., 96 mg/kg
  % Suppression on Day 4: 71.26%
  Cured/treated: 0/5
oral, 96 mg/kg
  % Suppression on Day 4: 100%
  Cured/treated: 0/5

## C(=CC1COC2(CCCCC2)OO1)c1ccc(-c2ccccc2)cc1 (centres unmarked) [Trioxane 7ec, 3-[([1,1′-biphenyl]-4yl)vinyl]-1,2,5-trioxaspiro (5,5) undecane]
oral, 96 mg/kg
  inhibition in vivo at 96 mg/kg: 100%
  responders at 96 mg/kg: 100%
im, i.m., 96 mg/kg
  inhibition in vivo at 96 mg/kg: 100%
  responders at 96 mg/kg: 0%

## C=C(c1ccc(-c2ccccc2)cc1)C1COC2(CCC(c3ccccc3)CC2)OO1 (centres unmarked) [Trioxane 7ef]
i.m., 96 mg/kg
  % Suppression on Day 4: 42.7%
  Cured/treated: 0/5
oral, 96 mg/kg
  % Suppression on Day 4: 100%
  Cured/treated: 2/5

## C(=CC1COC2(CCCC2)OO1)c1ccc(-c2ccccc2)cc1 (centres unmarked) [Trioxane 7eb, 8-[([1,1′-biphenyl]-4yl)vinyl]-6,7,10-trioxaspiro (4,5) decane]
oral, 96 mg/kg
  inhibition in vivo at 96 mg/kg: 100%
  responders at 96 mg/kg: 0%
im, i.m., 96 mg/kg
  inhibition in vivo at 96 mg/kg: 100%
  responders at 96 mg/kg: 100%

## CC1(C)OCC(C=Cc2ccc(-c3ccc(Br)cc3)cc2)OO1 (centres unmarked) [Trioxane 7fa, 3,3-Dimethyl-6-[(4′-bromo-[1,1′-biphenyl]-4-yl)-vinyl]-1,2,4-trioxane]
im, i.m., 96 mg/kg
  inhibition in vivo at 96 mg/kg: 83.7%
  responders at 96 mg/kg: 0%
oral, 96 mg/kg
  % Suppression on Day 4: died

## C=C(c1ccc(C2CCCCCC2)cc1)C1COC2(OO1)C1CC3CC(C1)CC2C3 (centres unmarked) [Trioxane 9c]
i.m., 96 mg/kg
  % Suppression on Day 4: 74.57%
  Cured/treated: 0/5
oral, 96 mg/kg
  % Suppression on Day 4: 100%
  Cured/treated: 5/5

## C=C(c1ccc(-c2ccccc2)cc1)C1COC2(CCC(C(C)(C)CC)CC2)OO1 (centres unmarked) [Trioxane 7eg]
i.m., 96 mg/kg
  % Suppression on Day 4: 87.6%
  Cured/treated: 0/5
oral, 96 mg/kg
  % Suppression on Day 4: 100%
  Cured/treated: 3/5

## C=C(c1ccc(C2CCCC2)cc1)C1COC2(CCC(c3ccccc3)CC2)OO1 (centres unmarked) [Trioxane 7ab]
i.m., 96 mg/kg
  % Suppression on Day 4: 77.56%
  Cured/treated: 0/5
oral, 96 mg/kg
  % Suppression on Day 4: 100%
  Cured/treated: 0/5

## C=C(c1ccc(C2CCCC2)cc1)C1COC2(OO1)C1CC3CC(C1)CC2C3 (centres unmarked) [Trioxane 9a]
i.m., 96 mg/kg
  % Suppression on Day 4: 81.23%
  Cured/treated: 0/5
oral, 96 mg/kg
  % Suppression on Day 4: 100%
  Cured/treated: 5/5

## C=C(c1ccc(C2CCCCC2)cc1)C1COC2(CCC(C(C)(C)CC)CC2)OO1 (centres unmarked) [Trioxane 7bi]
i.m., 96 mg/kg
  % Suppression on Day 4: 53.01%
  Cured/treated: 0/5
oral, 96 mg/kg
  % Suppression on Day 4: 100%
  Cured/treated: 5/5

## C(=CC1COC2(CCCCC2)OO1)c1ccc(C2CCCC2)cc1 (centres unmarked) [Trioxane 7ac, 3-[(4′-cyclopentylphenyl)vinyl]-1,2,5-trioxaspiro(5,5)undecane]
i.m., 96 mg/kg
  % Suppression on Day 4: 84.94%
  Cured/treated: 0/5
oral, 96 mg/kg
  % Suppression on Day 4: 100%
  Cured/treated: 5/5

## C(=CC1COC2(CCCCC2)OO1)c1ccc(C2CCCCC2)cc1 (centres unmarked) [Trioxane 7bd, 3-[(4′-Cyclohexylphenyl)vinyl]-1,2,5-trioxaspiro(5,5)undecane]
i.m., 96 mg/kg
  % Suppression on Day 4: 71.73%
  Cured/treated: 0/5
oral, 96 mg/kg
  % Suppression on Day 4: 100%
  Cured/treated: 5/5

## C(=CC1COC2(CCCCCC2)OO1)c1ccc(-c2ccccc2)cc1 (centres unmarked) [Trioxane 7eh, 3[([1,1′-biphenyl]-4yl)vinyl]-1,2,5-trioxaspiro(5,6)dodecane]
oral, 96 mg/kg
  inhibition in vivo at 96 mg/kg: 100%
  responders at 96 mg/kg: 80%
im, i.m., 96 mg/kg
  inhibition in vivo at 96 mg/kg: 92%
  responders at 96 mg/kg: 0%

## C=C(c1ccc(C2CCCCC2)cc1)C1COC2(CCC(c3ccccc3)CC2)OO1 (mixture of isomers) [Trioxane 7be]
i.m., 96 mg/kg
  % Suppression on Day 4: 91.6%
  Cured/treated: 0/5
oral, 48 mg/kg
  % Suppression on Day 4: 100%
  Cured/treated: 5/5

## C(=CC1COC2(CCCCCC2)OO1)c1ccc(C2CCCC2)cc1 (centres unmarked) [Trioxane 7ad]
i.m., 96 mg/kg
  % Suppression on Day 4: 48%
  Cured/treated: 0/5
oral, 96 mg/kg
  % Suppression on Day 4: 88.68%
  Cured/treated: 0/5

## C=C(c1ccc(-c2ccc(Br)cc2)cc1)C1COC2(OO1)C1CC3CC(C1)CC2C3 (centres unmarked) [Trioxane 9f]
i.m., 96 mg/kg
  % Suppression on Day 4: 92.4%
  Cured/treated: 2/5
oral, 48 mg/kg
  % Suppression on Day 4: 100%
  Cured/treated: 5/5

## C=C(c1ccc(C2CCCCCC2)cc1)C1COC2(CCC(c3ccccc3)CC2)OO1 (centres unmarked) [Trioxane 7cd]
i.m., 96 mg/kg
  % Suppression on Day 4: 58.17%
  Cured/treated: 0/5
oral, 96 mg/kg
  % Suppression on Day 4: 100%
  Cured/treated: 2/5

## C=C(c1ccc(-c2ccccc2)cc1)C1COC2(CC3CCC2C3)OO1 (centres unmarked) [Trioxane 8e]
i.m., 96 mg/kg
  % Suppression on Day 4: 100%
  Cured/treated: 1/4
oral, 96 mg/kg
  % Suppression on Day 4: 100%
  Cured/treated: 4/4

## Brc1ccc(-c2ccc(C=CC3COC4(CCCCC4)OO3)cc2)cc1 (centres unmarked) [Trioxane 7fc, 3-[(4′-bromo-[1,1′-biphenyl]-4-yl)-vinyl]-1,2,5-trioxaspiro (5,5) undecane]
oral, 96 mg/kg
  inhibition in vivo at 96 mg/kg: 100%
  responders at 96 mg/kg: 100%
im, i.m., 96 mg/kg
  inhibition in vivo at 96 mg/kg: 46.4%
  responders at 96 mg/kg: 20%

## 8-[(4′-cyclooctylphenyl)vinyl]-6,7,10-trioxaspiro(4,5)undecane [Trioxane 7de]
i.m., 96 mg/kg
  % Suppression on Day 4: 57.4%
  Cured/treated: 0/5
oral, 96 mg/kg
  % Suppression on Day 4: 100%
  Cured/treated: 3/5

## Brc1ccc(-c2ccc(C=CC3COC4(CCCC4)OO3)cc2)cc1 (centres unmarked) [Trioxane 7fe, 8-[(4′-bromo-[1,1′-biphenyl]-4yl)vinyl]-6,7,10-trioxaspiro (4,5) decane]
oral, 96 mg/kg
  inhibition in vivo at 96 mg/kg: 100%
  responders at 96 mg/kg: 60%
im, i.m., 96 mg/kg
  inhibition in vivo at 96 mg/kg: 89.4%
  responders at 96 mg/kg: 0%

## C(=CC1COC2(CCCC2)OO1)c1ccc(C2CCCC2)cc1 (centres unmarked) [Trioxane 7aa, 8-[(4′-Cyclopentylphenyl)vinyl]-6,7,10-trioxaspiro-[4,5]-decane]
i.m., 96 mg/kg
  % Suppression on Day 4: 100%
  Cured/treated: 0/5
oral, 96 mg/kg
  % Suppression on Day 4: 100%
  Cured/treated: 5/5

## C=C(c1ccc(-c2ccc(Cl)cc2)cc1)C1COC2(OO1)C1CC3CC(C1)CC2C3 (centres unmarked) [Trioxane 9g]
i.m., 96 mg/kg
  % Suppression on Day 4: 100%
oral, 96 mg/kg
  % Suppression on Day 4: 100%
  Cured/treated: 3/5

## C=C(c1ccc(C2CCCCCC2)cc1)C1COC2(CC3CCC2C3)OO1 (centres unmarked) [Trioxane 8c]
i.m., 96 mg/kg
  % Suppression on Day 4: 43.55%
  Cured/treated: 0/5
oral, 96 mg/kg
  % Suppression on Day 4: 100%
  Cured/treated: 3/5

## C=C(c1ccc(C2CCCCCCC2)cc1)C1COC2(CCC(C(C)(C)CC)CC2)OO1 (centres unmarked) [Trioxane 7df]
i.m., 96 mg/kg
  % Suppression on Day 4: 0%
  Cured/treated: 0/5
oral, 96 mg/kg
  % Suppression on Day 4: 100%
  Cured/treated: 3/5

## C=C(c1ccc(C2CCCCC2)cc1)C1COC2(OO1)C1CC3CC(C1)CC2C3 (centres unmarked) [Trioxane 9b]
i.m., 96 mg/kg
  % Suppression on Day 4: 82.16%
  Cured/treated: 0/5
oral, 96 mg/kg
  % Suppression on Day 4: 100%
  Cured/treated: 5/5
